Test results: ChEMBL document CHEMBL5380832, “Serine-/Cysteine-Based sp2-Iminoglycolipids as Novel TLR4 Agonists: Evaluation of Their Adjuvancy and Immunotherapeutic Properties in a Murine Model of Asthma” (J Med Chem, 2023)
The source made the active and inactive calls. The rule behind the calls is not given here.

Tests used:
Mus musculus [1] = experiment: Immunostimulatory activity in C57BL/6JNarl mouse assessed as increase in IFN-gamma expression level in serum at 20 microg/g, ip and measured after 18 hrs by ELISA; assay type: functional, organism-based; settings: dose 20.0 µg/g
Splenocyte [2] = experiment: Immunostimulatory activity in wild-type C57BL/6JNarl mouse splenocytes assessed as increase in IFN-gamma expression level at 10 to 25 uM incubated for 48 hrs by ELISA; assay type: functional, cell-based; settings: dose 10-25 µM
Mus musculus [3] = experiment: Immunomodulatory activity in OVA-sensitized asthmatic BALB/c mouse model assessed as inhibition of methacholine induced airway hyperreactivity by measuring pulmonary resistance at 20 microg/g, ip administered after day 14 OVA sensitization; assay type: functional; design: scale not given: the % may be the effect or the level left; settings: dose 20 µg/g
[4] = target: T1, Antigen-presenting glycoprotein CD1d1 (Mus musculus) (UniProt P11609); experiment: Activation of CD1d signaling in mouse iNKT hybridoma DN3A4-1.2 cells co-cultured with mouse A20 cells expressing CD1d assessed as IL-2 expression level at 10 to 25 uM incubated for 24 hrs by ELISA; assay type: cell-based; settings: iNKT hybridoma DN3A4-1.2 cell, dose 10-25 µM
T1 sequence (whole entry): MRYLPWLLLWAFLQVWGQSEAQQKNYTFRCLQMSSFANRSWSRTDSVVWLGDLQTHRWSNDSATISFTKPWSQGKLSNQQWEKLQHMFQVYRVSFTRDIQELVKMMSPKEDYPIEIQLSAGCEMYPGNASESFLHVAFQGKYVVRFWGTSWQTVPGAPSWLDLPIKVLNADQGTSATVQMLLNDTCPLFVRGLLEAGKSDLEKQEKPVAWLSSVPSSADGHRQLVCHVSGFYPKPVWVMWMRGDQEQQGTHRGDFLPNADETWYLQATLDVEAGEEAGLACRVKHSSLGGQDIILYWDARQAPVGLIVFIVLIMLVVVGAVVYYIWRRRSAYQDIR

[5] = target: Toll-like receptor 2 (Homo sapiens) (UniProt O60603); experiment: Agonist activity at human TLR2 expressed in human HEK293 cells assessed as IL-8 expression level at 10 to 25 uM incubated for 24 hrs by ELISA; assay type: cell-based; settings: dose 10-25 µM
Mus musculus [6] = experiment: Immunostimulatory activity in C57BL/6JNarl mouse assessed as increase in IFN-gamma expression level in serum at 20 microg/g, ip and measured after 2 hrs by ELISA; assay type: functional, organism-based; settings: dose 20.0 µg/g
Mus musculus [7] = experiment: Anti-inflammatory activity in OVA-sensitized asthmatic BALB/c mouse model assessed as reduction in IL-13 expression level in lung at 20 microg/g, ip administered after day 14 OVA sensitization by ELISA; assay type: functional, organism-based; settings: dose 20.0 µg/g
[8] = Induction of wild type C57BL/6JNarl mouse BMDC cells maturation assessed as increase in CD86 expression at 50 uM by flow cytometry (Rvb= 10.6%); assay type: functional
[9] = Induction of wild type C57BL/6JNarl mouse BMDC cells maturation assessed as increase in CD86 expression at 10 uM by flow cytometry (Rvb= 10.6%); assay type: functional
Mus musculus [10] = experiment: Immunostimulatory activity in C57BL/6JNarl mouse assessed as increase in Cd86 mRNA expression level in spleen at 20 microg/g, ip by RT-qPCR analysis; assay type: functional, organism-based; settings: dose 20.0 µg/g
PBMC [11] = experiment: Immunostimulatory activity in human PBMC cells assessed as increase in IL-6 expression level at 10 to 25 uM by ELISA; assay type: functional, cell-based; settings: dose 10-25 µM
Mus musculus [12] = experiment: Immunostimulatory activity in C57BL/6JNarl mouse assessed as increase in IL-4 mRNA expression level in spleen at 20 microg/g, ip by RT-qPCR analysis; assay type: functional, organism-based; settings: dose 20.0 µg/g
BMDC [13] = experiment: Induction of wild type C57BL/6JNarl mouse BMDC cells maturation assessed as increase in IL-12p40 expression level at 10 to 50 uM by ELISA; assay type: functional, cell-based; settings: dose 10-50 µM
[14] = target: Toll-like receptor 4 (Homo sapiens) (UniProt O00206); experiment: Activation of TLR4 signaling in human HEK293 cells assessed as IL-8 expression level at 10 to 25 uM incubated for 24 hrs by ELISA; assay type: cell-based; settings: dose 10-25 µM
Splenocyte [15] = experiment: Immunostimulatory activity in MyD88 knockout C57BL/6JNarl mouse splenocytes assessed as increase in IFN-gamma expression level at 10 to 25 uM incubated for 48 hrs by ELISA; assay type: functional, cell-based; settings: dose 10-25 µM
BMDC [16] = experiment: Induction of MyD88 knockout C57BL/6JNarl mouse BMDC cells maturation assessed as increase in IL-12p40 expression level at 10 to 50 uM by ELISA; assay type: functional, cell-based; settings: dose 10-50 µM
Splenocyte [17] = experiment: Immunostimulatory activity in wild-type C57BL/6JNarl mouse splenocytes assessed as increase in IL-6 expression level at 10 to 25 uM incubated for 48 hrs by ELISA; assay type: functional, cell-based; settings: dose 10-25 µM
Splenocyte [18] = experiment: Cytotoxicity in wild-type C57BL/6JNarl mouse splenocytes assessed as reduction in cell viability at 25 uM by MTT assay; assay type: toxicity, cell-based
HEK293 = experiment: Cytotoxicity in human HEK293 cells assessed as reduction in cell viability at 25 uM by MTT assay; assay type: toxicity, cell-based; settings: hek293, 25 µM
[19] = target: Toll-like receptor 4 (Homo sapiens) (UniProt O00206); experiment: Agonist activity at human TLR4 expressed in human HEK293 cells co-expressing human MD-2 and CD14 assessed as IL-8 expression level at 10 to 25 uM incubated for 24 hrs by ELISA; assay type: cell-based; settings: filed as agonist, dose 10-25 µM
Mus musculus [20] = experiment: Immunostimulatory activity in C57BL/6JNarl mouse assessed as increase in IL-4 expression level in serum at 20 microg/g, ip and measured after 2 hrs by ELISA; assay type: functional, organism-based; settings: dose 20.0 µg/g
Mus musculus [21] = experiment: Immunomodulatory activity in OVA-sensitized asthmatic BALB/c mouse model assessed as reduction in IL-4 expression level in lung at 20 microg/g, ip administered after day 14 OVA sensitization by ELISA; assay type: functional, organism-based; settings: dose 20.0 µg/g
Mus musculus [22] = experiment: Immuno-adjuvant activity in C57BL/6JNarl mouse […] with OT-1 mouse splenocytes assessed as fold increase in OVA-specific CD8+ T cell proliferation at 20 microg/g, ip in presence of OVA (257 to 264 residues) peptide treatment by flow cytometry relative to control; assay type: functional; settings: dose 20 µg/g
Splenocyte [23] = experiment: Immunostimulatory activity in MyD88 knockout C57BL/6JNarl mouse splenocytes assessed as increase in IL-6 expression level at 10 to 25 uM incubated for 48 hrs by ELISA; assay type: functional, cell-based; settings: dose 10-25 µM
[24] = Induction of MyD88 knockout C57BL/6JNarl mouse BMDC cells maturation assessed as increase in CD86 expression at 50 uM by flow cytometry (Rvb= 15%); assay type: functional
PBMC [25] = experiment: Immunostimulatory activity in human PBMC cells assessed as increase in IFN-gamma expression level at 10 to 25 uM by ELISA; assay type: functional, cell-based; settings: dose 10-25 µM
Mus musculus [26] = experiment: Anti-inflammatory activity in OVA-sensitized asthmatic BALB/c mouse model assessed as reduction in IL-13 expression level in BALF at 20 microg/g, ip administered after day 14 OVA sensitization by ELISA; assay type: functional, organism-based; settings: dose 20.0 µg/g
Mus musculus [27] = experiment: Immunostimulatory activity in C57BL/6JNarl mouse assessed as increase in IL-4 expression level in serum at 20 microg/g, ip and measured after 18 hrs by ELISA; assay type: functional, organism-based; settings: dose 20.0 µg/g
Mus musculus [28] = experiment: Immunomodulatory activity in OVA-sensitized asthmatic BALB/c mouse model assessed as reduction in IL-4 expression level in BALF at 20 microg/g, ip administered after day 14 OVA sensitization by ELISA; assay type: functional, organism-based; settings: dose 20.0 µg/g
[29] = target: Toll-like receptor 4 (Homo sapiens) (UniProt O00206); experiment: Activation of TLR4 signaling in human HEK293 cells expressing human MD-2 and CD14 assessed as IL-8 expression level at 10 to 25 uM incubated for 24 hrs by ELISA; assay type: cell-based; settings: dose 10-25 µM
[30] = target: T1, Antigen-presenting glycoprotein CD1d1 (Mus musculus); experiment: Binding affinity to mouse CD1d in alpha-GalCer stimulated mouse iNKT hybridoma DN3A4-1.2 cells expressing co-cultured with mouse A20 cells expressing mouse CD1d assessed as inhibition of alpha-GlaCer activity by measuring IL-2 expression level at 10 to 25 uM incubated for 24 hrs by ELISA; assay type: cell-based; settings: iNKT hybridoma DN3A4-1.2 cell, dose 10-25 µM

Toll-like receptor 2 (Homo sapiens), sequence (O60603 whole entry): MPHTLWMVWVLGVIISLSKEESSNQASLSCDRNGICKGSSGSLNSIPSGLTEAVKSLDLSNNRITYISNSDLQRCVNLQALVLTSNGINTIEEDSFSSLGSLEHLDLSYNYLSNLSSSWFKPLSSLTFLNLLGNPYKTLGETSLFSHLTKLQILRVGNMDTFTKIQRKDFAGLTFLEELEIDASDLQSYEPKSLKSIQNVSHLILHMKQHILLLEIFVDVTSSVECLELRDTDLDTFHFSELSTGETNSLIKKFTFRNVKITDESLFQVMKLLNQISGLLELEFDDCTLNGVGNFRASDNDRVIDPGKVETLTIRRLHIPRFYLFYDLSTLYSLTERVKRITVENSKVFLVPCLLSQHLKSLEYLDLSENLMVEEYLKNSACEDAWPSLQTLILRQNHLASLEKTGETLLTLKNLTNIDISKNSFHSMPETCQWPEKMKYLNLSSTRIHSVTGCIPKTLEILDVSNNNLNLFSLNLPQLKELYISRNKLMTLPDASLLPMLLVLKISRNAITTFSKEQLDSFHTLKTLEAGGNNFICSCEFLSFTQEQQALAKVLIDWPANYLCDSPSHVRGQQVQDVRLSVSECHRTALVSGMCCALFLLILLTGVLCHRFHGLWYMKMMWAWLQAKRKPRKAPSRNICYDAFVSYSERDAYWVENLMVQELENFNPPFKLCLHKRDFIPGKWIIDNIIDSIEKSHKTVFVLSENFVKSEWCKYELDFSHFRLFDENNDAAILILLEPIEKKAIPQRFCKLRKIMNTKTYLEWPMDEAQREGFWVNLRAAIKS
Toll-like receptor 4 (Homo sapiens), sequence (O00206 whole entry): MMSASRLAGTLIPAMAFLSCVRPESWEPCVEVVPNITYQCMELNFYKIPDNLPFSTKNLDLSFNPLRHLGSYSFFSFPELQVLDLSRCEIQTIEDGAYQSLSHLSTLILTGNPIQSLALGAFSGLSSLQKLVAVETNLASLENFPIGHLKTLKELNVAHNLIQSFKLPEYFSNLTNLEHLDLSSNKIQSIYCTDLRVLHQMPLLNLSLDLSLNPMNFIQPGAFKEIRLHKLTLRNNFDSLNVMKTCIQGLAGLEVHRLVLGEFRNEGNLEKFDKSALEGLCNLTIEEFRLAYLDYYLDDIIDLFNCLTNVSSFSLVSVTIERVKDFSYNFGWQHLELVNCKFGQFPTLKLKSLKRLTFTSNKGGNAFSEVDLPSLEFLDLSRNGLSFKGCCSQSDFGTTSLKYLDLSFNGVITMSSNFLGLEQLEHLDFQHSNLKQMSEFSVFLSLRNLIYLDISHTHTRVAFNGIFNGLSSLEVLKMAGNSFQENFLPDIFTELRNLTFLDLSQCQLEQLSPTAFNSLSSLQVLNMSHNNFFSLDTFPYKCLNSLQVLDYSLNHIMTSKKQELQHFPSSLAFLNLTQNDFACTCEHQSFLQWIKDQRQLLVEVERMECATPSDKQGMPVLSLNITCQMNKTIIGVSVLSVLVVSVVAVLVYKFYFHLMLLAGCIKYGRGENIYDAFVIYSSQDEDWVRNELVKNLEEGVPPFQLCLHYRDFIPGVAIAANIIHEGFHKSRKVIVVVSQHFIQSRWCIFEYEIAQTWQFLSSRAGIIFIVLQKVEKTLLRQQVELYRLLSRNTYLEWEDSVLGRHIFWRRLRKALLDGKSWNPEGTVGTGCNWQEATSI

| Compound | Activity [4] | Activity [5] | Activity [14] | Activity [19] | Activity [30] | Activity (Mus musculus [1]) | Activity (Splenocyte [2]) | Activity (Mus musculus [3]) [%] | Activity (Mus musculus [6]) | Activity (PBMC [11]) | Activity (Splenocyte [15]) | Activity (Splenocyte [17]) | Activity (Splenocyte [18]) | Activity (HEK293) | Activity (Mus musculus [20]) | Activity (Mus musculus [21]) | Activity (Splenocyte [23]) | Activity (PBMC [25]) | Activity (Mus musculus [27]) | Activity (Mus musculus [28]) | other results |
| --- | --- | --- | --- | --- | --- | --- | --- | --- | --- | --- | --- | --- | --- | --- | --- | --- | --- | --- | --- | --- | --- |
| CCCCCCCCCCCNC(=O)[C@H](CO[C@H]1O[C@H](CO)[C@H](O)[C@H](O)[C@H]1O)NC(=O)CCCCCCCCCCC |  |  |  |  | inactive |  | Active |  |  |  | inactive | Active |  |  |  |  | inactive |  |  |  |  |
| CCCCCCCCCCCCNC(=O)[C@H](CO[C@@H]1[C@H](O)[C@@H](O)[C@@H](O)[C@H]2COC(=O)N21)NC(=O)CCCCCCCCCCC | inactive | inactive | inactive | Active | inactive | Active | Active | 50 | Active | Active | inactive | Active | Non-Toxic | Non-Toxic | Active | Active | inactive | Active | Active | Active | Activity (Mus musculus [7]): Active; fold change (FC) (Mus musculus [22]): 10; Activity (Mus musculus [26]): Active; Activity [29]: inactive |
| CCCCCCCCCCCCNC(=O)[C@H](CS[C@@H]1[C@H](O)[C@@H](O)[C@@H](O)[C@H]2COC(=O)N21)NC(=O)CCCCCCCCCCC | inactive | inactive | inactive | Active | inactive | Active | Active | 50 | Active | inactive | inactive | inactive | Non-Toxic | Non-Toxic | Active | Active | inactive | inactive | Active | Active | Activity [29]: inactive |

Second part, led by results:

| Activity [4] | Activity [5] | Activity [14] | Activity [19] | Activity [30] | Compound | Activity (Mus musculus [1]) | Activity (Splenocyte [2]) | Activity (Mus musculus [3]) [%] | Activity (Mus musculus [6]) | Activity (PBMC [11]) | Activity (Splenocyte [15]) | Activity (Splenocyte [17]) | Activity (Splenocyte [18]) | Activity (HEK293) | Activity (Mus musculus [20]) | Activity (Mus musculus [21]) | Activity (Splenocyte [23]) | Activity (PBMC [25]) | Activity (Mus musculus [27]) | Activity (Mus musculus [28]) | other results |
| --- | --- | --- | --- | --- | --- | --- | --- | --- | --- | --- | --- | --- | --- | --- | --- | --- | --- | --- | --- | --- | --- |
| inactive | inactive | inactive | Active | inactive | CCCCCCCCCCCCNC(=O)[C@H](CO[C@@H]1[C@H](O)[C@@H](O)[C@H](O)[C@H]2COC(=O)N21)NC(=O)CCCCCCCCCCC | Active | Active | 50 | Active | Active | inactive | Active | Non-Toxic | Non-Toxic | Active | Active | inactive | Active | Active | Active | Activity (Mus musculus [7]): Active; Activity [8]: 54.9%; Activity [9]: 25.8%; Activity (Mus musculus [10]): Active; Activity (Mus musculus [12]): Active; Activity (BMDC [13]): Dose-Dependent Effect; Activity (BMDC [16]): inactive; fold change (FC) (Mus musculus [22]): 5; Activity [24]: 23.8%; Activity (Mus musculus [26]): Active; Activity [29]: inactive |
| inactive | inactive | inactive | Active | inactive | CCCCCCCCCCCCNC(=O)[C@H](CS[C@@H]1[C@H](O)[C@@H](O)[C@H](O)[C@H]2COC(=O)N21)NC(=O)CCCCCCCCCCC | Active | Active | 50 | Active | inactive | inactive | inactive | Non-Toxic | Non-Toxic | Active | Active | inactive | inactive | Active | Active | Activity [29]: inactive |
